The target of the experiment is HPK1 (MAP4K1) (Homo sapiens, UniProt Q92918). The experiment in a line: FRET Assay for HPK1 (MAP4K1): one step binding assay, displacement of labeled tracer. The conditions noted are these: for inhibition at 1 µM: 1 μM compound; for inhibition at 1 µM / inhibition at 10 µM: FRET ratio 665/620, percent of control; for inhibition at 10 µM: 10 μM compound; for IC50: dose response curve, nonlinear regression. The source says:
FRET Assay for HPK1 (MAP4K1):
This is a one step binding assay based on the binding and displacement of the labeled tracer, where compound addition is followed by addition of the anti-GST tagged europium (Eu) as the donor and Alexa Fluor-labeled tracer as the acceptor. Simultaneous binding of both the tracer and GST-antibody to the kinase domain of HPK1 results in a high degree of FRET (fluorescence resonance energy transfer) from the anti-GST tagged europium (Eu) fluorophore to the Alexa Fluor® 647 fluorophore on the kinase tracer and this signal is reduced in presence of the inhibitor that can be measured.
Test compounds or reference compounds such as Sunitinib (Sigma) were dissolved in dimethylsulfoxide (DMSO) to prepare 10.0 mM stock solutions and diluted to the desired concentration. The final concentration of DMSO in the reaction was 3% (v/v). The assay mixture was prepared by mixing 4 nM of the Eu-Anti-GST Antibody and 10 nM MAP4K-1 enzyme in the Kinase buffer containing 50mM HEPES (pH 7.5), 10 mM MgCl2, 1 mM EGTA, 0.01% Brij-35 with or without the desired concentration of the compound. The reaction was incubated on ice for 15 mins. The pre-incubation step was followed by addition of the 20 nM Kinase Tracer 222 into the reaction mixture. After shaking for 5 min the reaction was further incubated for 1 hour at room temperature and this was kept at 4° C. and read on ARTEMIS reader as per the kit instructions (Thermo). […] The activity was calculated as percent of control reaction. IC50 values were calculated from dose response curve by nonlinear regression analysis using GraphPad Prism software.
Percentage inhibition at concentrations of 1.0 μM and 10.0 μM are given in the table along with IC50 (nM) details for selected examples.

Structures are written as SMILES. Bounds are passed on as bounds.

HPK1 (MAP4K1), sequence (Q92918 whole entry): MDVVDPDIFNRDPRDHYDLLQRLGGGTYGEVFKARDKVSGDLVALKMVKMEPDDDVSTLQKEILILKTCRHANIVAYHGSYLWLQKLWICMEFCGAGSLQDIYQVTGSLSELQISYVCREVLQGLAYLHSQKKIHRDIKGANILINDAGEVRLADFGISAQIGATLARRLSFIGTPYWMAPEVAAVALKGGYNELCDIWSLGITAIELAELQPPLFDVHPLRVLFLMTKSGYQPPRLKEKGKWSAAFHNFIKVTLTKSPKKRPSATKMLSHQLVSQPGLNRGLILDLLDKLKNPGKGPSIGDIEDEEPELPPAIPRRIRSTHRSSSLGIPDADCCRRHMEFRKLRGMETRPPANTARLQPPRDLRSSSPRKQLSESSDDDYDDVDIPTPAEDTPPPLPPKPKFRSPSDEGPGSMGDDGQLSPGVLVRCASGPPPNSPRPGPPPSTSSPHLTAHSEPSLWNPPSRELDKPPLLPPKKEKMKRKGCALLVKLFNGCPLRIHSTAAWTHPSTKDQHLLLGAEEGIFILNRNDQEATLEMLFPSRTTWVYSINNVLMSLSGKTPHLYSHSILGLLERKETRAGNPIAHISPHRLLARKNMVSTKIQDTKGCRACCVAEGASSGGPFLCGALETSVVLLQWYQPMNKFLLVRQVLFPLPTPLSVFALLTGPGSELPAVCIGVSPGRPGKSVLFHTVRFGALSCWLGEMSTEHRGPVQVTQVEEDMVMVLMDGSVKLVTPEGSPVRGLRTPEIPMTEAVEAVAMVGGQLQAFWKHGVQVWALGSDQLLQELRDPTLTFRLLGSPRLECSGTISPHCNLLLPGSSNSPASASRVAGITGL

In general, inhibition refers to the percentage by which the read-out fell short of the control. One may read the IC50 as the concentration at which inhibition is half-maximal. Lower therefore signals greater potency in that assay. As for `CCOc1cccc(F)c1-c1cc2c(cn1)NC(=O)/C2=C(/C)Nc1ccc(N2CCOCC2)nc1` [Example 37, (Z)-5-(2-Ethoxy-6-fluorophenyl)-3-(1-((6-morpholinopyridin-3-yl)amino)ethylidene)-1H-pyrrolo[2,3-c]pyridin-2(3H)-one], the inhibition at 1 µM was 84.4%, the inhibition at 10 µM was 91.2% and the IC50 was 50 to 100 nM.

Turning to `C/C(Nc1ncc(C)s1)=C1/C(=O)Nc2cnc(-c3c(C)cccc3F)cc21` [Example 205, (Z)-5-(2-Fluoro-6-methylphenyl)-3-(1-((5-methylthiazol-2-yl)amino)ethylidene)-1H-pyrrolo[2,3-c]pyridin-2(3H)-one], the inhibition at 1 µM came out at 73.3% and the IC50 is < 50 nM.

`C/C(Nc1c(C)nn(C)c1C)=C1/C(=O)Nc2cnc(-c3cnccc3C)cc21` [Example 119, (Z)-5-(4-Methylpyridin-3-yl)-3-(1-((1,3,5-trimethyl-1H-pyrazol-4-yl)amino)ethylidene)-1H-pyrrolo[2,3-c]pyridin-2(3H)-one]: the inhibition at 1 µM was 52.6%, the inhibition at 10 µM worked out at 67% and the IC50 was > 500 nM.

With `C/C(Nc1ccc(C)nc1)=C1/C(=O)Nc2cnc(-c3cnccc3C)cc21` [Example 123, (Z)-5-(4-Methylpyridin-3-yl)-3-(1-((6-methylpyridin-3-yl)amino)ethylidene)-1H-pyrrolo[2,3-c]pyridin-2(3H)-one], the inhibition at 1 µM was 81.8%, the inhibition at 10 µM turned out to be 88.2% and the IC50 was < 50 nM.

As to `C/C(Nc1cc(C)n(CCC(C)C)n1)=C1/C(=O)Nc2cnc(-c3cnccc3C)cc21` [Example 204, (Z)-3-(1-((1-Isopentyl-5-methyl-1H-pyrazol-3-yl)amino)ethylidene)-5-(4-methylpyridin-3-yl)-1H-pyrrolo[2,3-c]pyridin-2(3H)-one], the inhibition at 1 µM was 72.7%, the inhibition at 10 µM amounted to 86.1% and the IC50 is < 50 nM.

Turning to `CCS(=O)(=O)n1cc(N/C(C)=C2\C(=O)Nc3cnc(-c4cnccc4C)cc32)cn1` [Example 80, (Z)-3-(1-((1-(Ethylsulfonyl)-1H-pyrazol-4-yl)amino)ethylidene)-5-(4-methylpyridin-3-yl)-1H-pyrrolo[2,3-c]pyridin-2(3H)-one], the inhibition at 1 µM turned out to be 75.1%, the inhibition at 10 µM came to 78% and the IC50 was < 50 nM.

On to `CCOc1cccc(F)c1-c1cc2c(cn1)NC(=O)/C2=C(/C)Nc1ccc(N2CCNCC2)nc1` [Example 36, (Z)-5-(2-Ethoxy-6-fluorophenyl)-3-(1-((6-(piperazin-1-yl)pyridin-3-yl)amino)ethylidene)-1H-pyrrolo[2,3-c]pyridin-2(3H)-one], for which the inhibition at 1 µM was determined as 87.8%, the inhibition at 10 µM was found to be 85.1% and the IC50 was < 50 nM.

Consider `C/C(Nc1cnn(CC[C@H](C)O)c1)=C1/C(=O)Nc2cnc(-c3cnccc3C)cc21` [Example 176, (S,Z)-3-(1-((1-(3-Hydroxybutyl)-1H-pyrazol-4-yl)amino)ethylidene)-5-(4-methylpyridin-3-yl)-1H-pyrrolo[2,3-c]pyridin-2(3H)-one], for which the inhibition at 1 µM is 75.4%, the inhibition at 10 µM was found to be 62.3% and the IC50 was < 50 nM.

As for `C/C(Nc1cnn(C)c1)=C1/C(=O)Nc2ccc(-c3cnccc3C)cc21` [Example 161, (Z)-3-(1-((1-Methyl-1H-pyrazol-4-yl)amino)ethylidene)-5-(4-methylpyridin-3-yl)indolin-2-one], the inhibition at 1 µM turned out to be 81.2%, the inhibition at 10 µM was found to be 81% and the IC50 was < 50 nM.

Take `C/C(Nc1cnn(CC2(O)CC2)c1)=C1/C(=O)Nc2cnc(-c3cnccc3C)cc21` [Example 174, (Z)-3-(1-((1-((1-Hydroxycyclopropyl)methyl)-1H-pyrazol-4-yl)amino)ethylidene)-5-(4-methylpyridin-3-yl)-1H-pyrrolo[2,3-c]pyridin-2(3H)-one]: the inhibition at 1 µM turned out to be 55.1%, the inhibition at 10 µM worked out at 64.8% and the IC50 is < 50 nM.

For `COc1cccc(F)c1-c1ccc2c(c1)/C(=C(/Nc1cnn(C)c1)c1ccccc1)C(=O)N2` [Example 15, (Z)-5-(2-Fluoro-6-methoxyphenyl)-3-(((1-methyl-1H-pyrazol-4-yl)amino)(phenyl)methylene)indolin-2-one], the inhibition at 1 µM worked out at 85.2%, the inhibition at 10 µM turned out to be 87% and the IC50 is < 50 nM.

As to `C/C(Nc1ccn(C)n1)=C1/C(=O)Nc2cnc(-c3cncc(N)c3C)cc21` [Example 140, (Z)-5-(5-Amino-4-methylpyridin-3-yl)-3-(1-((1-methyl-1H-pyrazol-3-yl)amino)ethylidene)-1H-pyrrolo[2,3-c]pyridin-2(3H)-one], the inhibition at 1 µM came out at 79.8%, the inhibition at 10 µM amounted to 91.3% and the IC50 is < 50 nM.

Regarding `COCCn1ccc(N/C(C)=C2\C(=O)Nc3cnc(-c4cnccc4C)cc32)n1` [Example 143, (Z)-3-(1-((1-(2-Methoxyethyl)-1H-pyrazol-3-yl)amino)ethylidene)-5-(4-methylpyridin-3-yl)-1H-pyrrolo[2,3-c]pyridin-2(3H)-one], the inhibition at 1 µM was determined as 80.4%, the inhibition at 10 µM worked out at 83.8% and the IC50 is < 50 nM.

As to `CNC(=O)C(C)(C)n1ccc(N/C(C)=C2\C(=O)Nc3cnc(-c4cnccc4C)cc32)n1` [Example 118, (Z)-N,2-dimethyl-2-(3-((1-(5-(4-methylpyridin-3-yl)-2-oxo-1H-pyrrolo[2,3-c]pyridin-3(2H)-ylidene)ethyl)amino)-1H-pyrazol-1-yl)propanamide], the inhibition at 1 µM came out at 78.4%, the inhibition at 10 µM was found to be 83.3% and the IC50 was < 50 nM.

For the compound `CCOc1cccc(F)c1-c1cc2c(cn1)NC(=O)/C2=C(/C)Nc1ccc(N2CCNCC2)cc1` [Example 34, (Z)-5-(2-Ethoxy-6-fluorophenyl)-3-(1-((4-(piperazin-1-yl)phenyl)amino)ethylidene)-1H-pyrrolo[2,3-c]pyridin-2(3H)-one], the inhibition at 1 µM was found to be 81.7%, the inhibition at 10 µM was found to be 80% and the IC50 is < 50 nM.

Take `C/C(Nc1cnn(C)c1)=C1/C(=O)Nc2cnc(-c3cnn(C)c3C)cc21` [Example 41, (Z)-5-(1,5-Dimethyl-1H-pyrazol-4-yl)-3-(1-((1-methyl-1H-pyrazol-4-yl)amino)ethylidene)-1H-pyrrolo[2,3-c]pyridin-2(3H)-one]: the inhibition at 1 µM worked out at 69.9%, the inhibition at 10 µM is 77% and the IC50 lay in the range of 50 to 100 nM.

`C/C(Nc1cnn(C)c1)=C1/C(=O)Nc2cnc(-c3ccc(F)cc3F)cc21` [Example 24, (Z)-5-(2,4-Difluorophenyl)-3-(1-((1-methyl-1H-pyrazol-4-yl)amino)ethylidene)-1H-pyrrolo[2,3-c]pyridin-2(3H)-one]: the inhibition at 1 µM was 70.9%, the inhibition at 10 µM turned out to be 79.7% and the IC50 was 100 to 500 nM.

On to `C/C(Nc1cc(C)n(CCC(C)(C)O)n1)=C1/C(=O)Nc2cnc(-c3cnccc3C)cc21` [Example 183, (Z)-3-(1-((1-(3-Hydroxy-3-methylbutyl)-5-methyl-1H-pyrazol-3-yl)amino)ethylidene)-5-(4-methylpyridin-3-yl)-1H-pyrrolo[2,3-c]pyridin-2(3H)-one], for which the inhibition at 1 µM is 72.5%, the inhibition at 10 µM was found to be 79.5% and the IC50 is < 50 nM.

For `COCCn1cc(N/C(C)=C2\C(=O)Nc3cnc(-c4cnccc4C)cc32)cn1` [Example 60, (Z)-3-(1-((1-(2-Methoxyethyl)-1H-pyrazol-4-yl)amino)ethylidene)-5-(4-methylpyridin-3-yl)-1H-pyrrolo[2,3-c]pyridin-2(3H)-one], the inhibition at 1 µM worked out at 74%, the inhibition at 10 µM is 72.7% and the IC50 was < 50 nM.

With `CCn1nc(N/C(C)=C2\C(=O)Nc3cnc(-c4cnccc4C)cc32)cc1C` [Example 182, (Z)-3-(1-((1-Ethyl-5-methyl-1H-pyrazol-3-yl)amino)ethylidene)-5-(4-methylpyridin-3-yl)-1H-pyrrolo[2,3-c]pyridin-2(3H)-one], the inhibition at 1 µM was determined as 78.8%, the inhibition at 10 µM is 73% and the IC50 is < 50 nM.

Regarding `CNC(=O)C(F)(F)n1ccc(N/C(C)=C2\C(=O)Nc3cnc(-c4cnccc4C)cc32)n1` [Example 155, (Z)-2,2-Difluoro-N-methyl-2-(3-((1-(5-(4-methylpyridin-3-yl)-2-oxo-1H-pyrrolo[2,3-c]pyridin-3(2H)-ylidene)ethyl)amino)-1H-pyrazol-1-yl)acetamide], the inhibition at 1 µM amounted to 65.1%, the inhibition at 10 µM amounted to 68.8% and the IC50 is < 50 nM.

With `CCOc1cccc(F)c1-c1cc2c(cn1)NC(=O)/C2=C(/C)Nc1cnn(C)c1` [Example 25, (Z)-5-(2-Ethoxy-6-fluorophenyl)-3-(1-((1-methyl-1H-pyrazol-4-yl)amino)ethylidene)-1H-pyrrolo[2,3-c]pyridin-2(3H)-one], the inhibition at 1 µM came out at 87.1%, the inhibition at 10 µM came out at 85.3% and the IC50 is < 50 nM.

Values taken from patent US20230009626A1 (ICHNOS SCIENCES S.A., priority 2018, published 2023).
